How the values were obtained:
Melanocortin receptor 3 = Melanocortin receptor 3 (Homo sapiens, UniProt P41968)
[1] = molecular target: Beta-1 adrenergic receptor (Homo sapiens, UniProt P08588); type: functional
Histamine H1 receptor = Histamine H1 receptor (Homo sapiens, UniProt P35367)
[2] = molecular target: T1, Prostaglandin G/H synthase 1 (Rattus norvegicus, UniProt Q63921); type: functional
T1 sequence (Q63921 whole entry): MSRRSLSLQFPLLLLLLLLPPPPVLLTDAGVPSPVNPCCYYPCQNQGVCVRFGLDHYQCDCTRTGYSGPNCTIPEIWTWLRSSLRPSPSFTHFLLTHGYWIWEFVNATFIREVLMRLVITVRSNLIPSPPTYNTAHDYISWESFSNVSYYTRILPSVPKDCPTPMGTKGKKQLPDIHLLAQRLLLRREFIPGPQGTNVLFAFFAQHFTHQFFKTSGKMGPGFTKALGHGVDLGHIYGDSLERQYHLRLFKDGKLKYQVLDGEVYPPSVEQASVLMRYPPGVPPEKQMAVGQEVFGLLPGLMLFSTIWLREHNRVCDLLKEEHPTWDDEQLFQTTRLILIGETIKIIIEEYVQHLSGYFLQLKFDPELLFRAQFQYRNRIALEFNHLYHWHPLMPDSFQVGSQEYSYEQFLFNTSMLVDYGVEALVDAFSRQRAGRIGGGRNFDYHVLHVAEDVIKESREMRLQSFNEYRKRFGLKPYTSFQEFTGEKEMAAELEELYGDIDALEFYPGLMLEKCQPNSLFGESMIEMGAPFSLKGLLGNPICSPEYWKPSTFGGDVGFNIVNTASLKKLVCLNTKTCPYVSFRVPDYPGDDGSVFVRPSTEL

[3] = molecular target: T2, Alpha-2C adrenergic receptor (Homo sapiens, UniProt P18825); type: functional
T2 sequence (P18825 whole entry): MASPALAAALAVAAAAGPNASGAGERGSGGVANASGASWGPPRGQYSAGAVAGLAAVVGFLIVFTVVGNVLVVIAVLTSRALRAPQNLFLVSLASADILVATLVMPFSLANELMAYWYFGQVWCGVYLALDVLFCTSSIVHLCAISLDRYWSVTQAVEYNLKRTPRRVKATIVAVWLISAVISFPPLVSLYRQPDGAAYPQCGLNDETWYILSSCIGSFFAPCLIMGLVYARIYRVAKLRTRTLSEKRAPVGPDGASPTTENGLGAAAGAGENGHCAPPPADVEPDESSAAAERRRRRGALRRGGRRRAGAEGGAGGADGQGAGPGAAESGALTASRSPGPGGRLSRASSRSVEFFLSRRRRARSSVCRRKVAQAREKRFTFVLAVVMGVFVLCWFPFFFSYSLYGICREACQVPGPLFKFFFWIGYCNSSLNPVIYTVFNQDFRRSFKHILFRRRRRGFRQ

[4] = molecular target: Voltage-gated inwardly rectifying potassium channel KCNH2 (Homo sapiens, UniProt Q12809); type: functional
Histamine H2 receptor = Histamine H2 receptor (Homo sapiens, UniProt P25021); type: functional, cell-based
D(3) dopamine receptor = D(3) dopamine receptor (Homo sapiens, UniProt P35462)
[5] = molecular target: T3, Neuropeptide Y receptor type 1 (Homo sapiens, UniProt P25929); conditions: read-out: AC50
T3 sequence (P25929 whole entry): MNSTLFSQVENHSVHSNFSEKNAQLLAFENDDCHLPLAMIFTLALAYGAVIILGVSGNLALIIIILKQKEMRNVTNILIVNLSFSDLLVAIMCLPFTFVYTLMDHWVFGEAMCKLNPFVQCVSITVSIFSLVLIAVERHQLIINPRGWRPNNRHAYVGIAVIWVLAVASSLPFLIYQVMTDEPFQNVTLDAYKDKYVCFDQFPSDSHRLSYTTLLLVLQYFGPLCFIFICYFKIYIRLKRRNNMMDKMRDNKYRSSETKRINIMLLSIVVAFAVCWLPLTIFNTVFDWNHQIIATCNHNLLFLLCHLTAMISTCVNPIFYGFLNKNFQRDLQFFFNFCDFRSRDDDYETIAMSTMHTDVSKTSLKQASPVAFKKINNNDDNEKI

[6] = molecular target: T4, 5-hydroxytryptamine receptor 2C (Homo sapiens, UniProt P28335)
T4 sequence (P28335 whole entry): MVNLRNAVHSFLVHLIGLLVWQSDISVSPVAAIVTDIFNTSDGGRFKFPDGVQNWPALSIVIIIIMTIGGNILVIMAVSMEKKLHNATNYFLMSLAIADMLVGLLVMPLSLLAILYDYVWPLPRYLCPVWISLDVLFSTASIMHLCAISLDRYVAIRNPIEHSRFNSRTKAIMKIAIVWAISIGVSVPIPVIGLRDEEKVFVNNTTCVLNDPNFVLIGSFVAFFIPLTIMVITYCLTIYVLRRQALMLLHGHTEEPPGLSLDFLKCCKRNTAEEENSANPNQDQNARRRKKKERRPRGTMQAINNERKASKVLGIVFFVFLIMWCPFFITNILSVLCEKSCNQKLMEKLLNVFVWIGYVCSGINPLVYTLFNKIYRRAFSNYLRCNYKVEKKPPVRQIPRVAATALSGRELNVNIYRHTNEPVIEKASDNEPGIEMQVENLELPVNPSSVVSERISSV

[7] = molecular target: Glutamate receptor ionotropic, NMDA 1 (Rattus norvegicus, UniProt P35439)
[8] = molecular target: Delta-type opioid receptor (Homo sapiens, UniProt P41143)
Adenosine receptor A1 = molecular target: T5, Adenosine receptor A1 (Homo sapiens, UniProt P30542)
T5 sequence (P30542 whole entry): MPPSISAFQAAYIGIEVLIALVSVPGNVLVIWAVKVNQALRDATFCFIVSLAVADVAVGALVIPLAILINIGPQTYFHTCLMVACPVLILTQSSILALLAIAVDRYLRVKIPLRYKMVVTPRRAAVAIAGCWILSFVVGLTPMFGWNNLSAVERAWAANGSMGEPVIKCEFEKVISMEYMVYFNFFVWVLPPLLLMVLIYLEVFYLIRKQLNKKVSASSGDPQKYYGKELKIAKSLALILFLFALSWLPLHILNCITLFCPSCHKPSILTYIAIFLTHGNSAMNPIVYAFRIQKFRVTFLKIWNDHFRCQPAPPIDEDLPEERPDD

[9] = molecular target: Gamma-aminobutyric acid receptor subunit alpha-1 (Rattus norvegicus, UniProt P62813); type: functional
Vasopressin V2 receptor = Vasopressin V2 receptor (Homo sapiens, UniProt P30518)
Histamine H3 receptor = Histamine H3 receptor (Homo sapiens, UniProt Q9Y5N1)
Note: assay procedure not described here.

Sequence of Vasopressin V2 receptor (P30518 whole entry): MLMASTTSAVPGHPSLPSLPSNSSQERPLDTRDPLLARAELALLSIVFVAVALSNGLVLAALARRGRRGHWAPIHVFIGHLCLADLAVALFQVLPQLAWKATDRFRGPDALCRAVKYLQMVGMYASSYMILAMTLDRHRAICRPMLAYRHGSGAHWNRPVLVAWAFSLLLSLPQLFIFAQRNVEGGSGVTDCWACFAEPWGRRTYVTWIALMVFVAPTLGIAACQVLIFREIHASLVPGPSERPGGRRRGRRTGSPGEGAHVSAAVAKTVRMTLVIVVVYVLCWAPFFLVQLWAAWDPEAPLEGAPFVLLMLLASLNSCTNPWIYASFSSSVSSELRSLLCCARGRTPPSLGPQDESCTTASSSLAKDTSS
Sequence of Beta-1 adrenergic receptor (P08588 whole entry): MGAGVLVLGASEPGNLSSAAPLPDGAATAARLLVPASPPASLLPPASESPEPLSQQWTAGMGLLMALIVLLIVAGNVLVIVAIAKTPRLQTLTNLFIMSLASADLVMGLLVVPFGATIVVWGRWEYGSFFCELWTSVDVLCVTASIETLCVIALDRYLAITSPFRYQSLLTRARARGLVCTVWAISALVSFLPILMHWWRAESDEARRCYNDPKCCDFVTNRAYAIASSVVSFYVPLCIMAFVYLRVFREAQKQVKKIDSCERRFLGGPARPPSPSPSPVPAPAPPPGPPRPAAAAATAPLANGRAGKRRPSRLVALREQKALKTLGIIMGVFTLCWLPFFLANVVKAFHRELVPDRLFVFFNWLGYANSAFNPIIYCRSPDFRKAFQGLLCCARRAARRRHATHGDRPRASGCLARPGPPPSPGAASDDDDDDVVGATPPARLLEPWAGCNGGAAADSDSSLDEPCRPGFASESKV
Sequence of Gamma-aminobutyric acid receptor subunit alpha-1 (P62813 whole entry): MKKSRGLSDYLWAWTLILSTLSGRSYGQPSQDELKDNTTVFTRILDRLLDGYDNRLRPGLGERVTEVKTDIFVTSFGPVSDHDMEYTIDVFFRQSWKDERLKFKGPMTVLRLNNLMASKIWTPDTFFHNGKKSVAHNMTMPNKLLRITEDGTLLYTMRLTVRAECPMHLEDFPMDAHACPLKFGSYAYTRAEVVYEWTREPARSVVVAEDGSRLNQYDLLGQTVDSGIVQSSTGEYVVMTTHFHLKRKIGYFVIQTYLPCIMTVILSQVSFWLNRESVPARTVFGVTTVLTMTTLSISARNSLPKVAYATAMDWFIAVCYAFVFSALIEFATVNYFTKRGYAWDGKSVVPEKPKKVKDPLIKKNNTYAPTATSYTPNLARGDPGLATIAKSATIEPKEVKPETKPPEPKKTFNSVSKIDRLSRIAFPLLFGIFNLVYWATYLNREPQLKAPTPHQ
Sequence of Melanocortin receptor 3 (P41968 whole entry): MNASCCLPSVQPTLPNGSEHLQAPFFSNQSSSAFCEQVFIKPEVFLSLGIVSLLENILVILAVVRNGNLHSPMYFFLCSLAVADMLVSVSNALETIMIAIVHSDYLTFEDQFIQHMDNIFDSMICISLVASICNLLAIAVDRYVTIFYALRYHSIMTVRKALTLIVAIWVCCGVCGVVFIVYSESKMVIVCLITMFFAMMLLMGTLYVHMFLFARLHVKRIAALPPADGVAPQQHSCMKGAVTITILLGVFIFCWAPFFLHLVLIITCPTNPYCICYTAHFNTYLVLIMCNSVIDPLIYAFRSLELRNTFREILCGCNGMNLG
Sequence of D(3) dopamine receptor (P35462 whole entry): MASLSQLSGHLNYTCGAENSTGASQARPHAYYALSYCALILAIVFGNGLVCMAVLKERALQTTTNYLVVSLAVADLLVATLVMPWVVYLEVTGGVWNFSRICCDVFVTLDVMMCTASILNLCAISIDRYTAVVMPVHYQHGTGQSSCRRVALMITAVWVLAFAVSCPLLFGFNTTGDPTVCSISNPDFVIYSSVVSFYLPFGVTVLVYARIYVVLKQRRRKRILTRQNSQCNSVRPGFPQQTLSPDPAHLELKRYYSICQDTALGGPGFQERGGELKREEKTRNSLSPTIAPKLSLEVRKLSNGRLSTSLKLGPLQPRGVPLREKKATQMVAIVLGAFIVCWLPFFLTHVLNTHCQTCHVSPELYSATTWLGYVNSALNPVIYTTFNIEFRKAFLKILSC
Sequence of Histamine H3 receptor (Q9Y5N1 whole entry): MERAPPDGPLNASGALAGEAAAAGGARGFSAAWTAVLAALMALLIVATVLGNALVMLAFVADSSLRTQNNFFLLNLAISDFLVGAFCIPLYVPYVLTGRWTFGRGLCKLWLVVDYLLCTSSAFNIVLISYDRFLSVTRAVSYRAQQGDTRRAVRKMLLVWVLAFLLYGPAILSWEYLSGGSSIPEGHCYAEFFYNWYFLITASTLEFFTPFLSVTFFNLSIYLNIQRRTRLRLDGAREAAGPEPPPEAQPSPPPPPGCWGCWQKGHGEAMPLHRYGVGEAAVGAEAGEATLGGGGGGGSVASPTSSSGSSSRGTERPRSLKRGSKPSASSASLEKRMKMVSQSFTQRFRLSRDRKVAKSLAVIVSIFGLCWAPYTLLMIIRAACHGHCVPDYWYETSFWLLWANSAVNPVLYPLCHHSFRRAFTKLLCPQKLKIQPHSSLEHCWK
Sequence of Delta-type opioid receptor (P41143 whole entry): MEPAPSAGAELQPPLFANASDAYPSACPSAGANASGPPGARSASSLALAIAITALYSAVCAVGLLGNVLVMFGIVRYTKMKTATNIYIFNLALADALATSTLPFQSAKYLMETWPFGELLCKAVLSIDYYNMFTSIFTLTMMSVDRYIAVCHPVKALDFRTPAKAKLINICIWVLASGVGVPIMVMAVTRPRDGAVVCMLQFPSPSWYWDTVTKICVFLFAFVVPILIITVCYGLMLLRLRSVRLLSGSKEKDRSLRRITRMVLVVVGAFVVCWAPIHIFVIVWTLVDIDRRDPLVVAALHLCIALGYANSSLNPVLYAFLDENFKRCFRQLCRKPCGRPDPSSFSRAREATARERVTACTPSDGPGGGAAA
Sequence of Histamine H1 receptor (P35367 whole entry): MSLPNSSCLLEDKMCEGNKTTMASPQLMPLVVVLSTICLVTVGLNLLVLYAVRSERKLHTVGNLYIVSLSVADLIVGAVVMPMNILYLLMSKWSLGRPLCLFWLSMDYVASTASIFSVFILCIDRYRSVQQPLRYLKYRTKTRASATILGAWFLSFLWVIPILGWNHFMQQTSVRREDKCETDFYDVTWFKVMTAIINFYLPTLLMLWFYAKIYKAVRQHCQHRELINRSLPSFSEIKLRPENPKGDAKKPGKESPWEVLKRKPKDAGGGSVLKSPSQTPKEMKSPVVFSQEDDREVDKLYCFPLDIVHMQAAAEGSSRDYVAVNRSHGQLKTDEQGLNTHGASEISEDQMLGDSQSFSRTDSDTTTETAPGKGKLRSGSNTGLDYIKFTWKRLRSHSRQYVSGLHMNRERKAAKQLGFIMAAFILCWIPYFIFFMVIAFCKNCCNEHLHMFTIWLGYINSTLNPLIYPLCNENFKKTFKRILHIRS
Sequence of Voltage-gated inwardly rectifying potassium channel KCNH2 (Q12809 whole entry): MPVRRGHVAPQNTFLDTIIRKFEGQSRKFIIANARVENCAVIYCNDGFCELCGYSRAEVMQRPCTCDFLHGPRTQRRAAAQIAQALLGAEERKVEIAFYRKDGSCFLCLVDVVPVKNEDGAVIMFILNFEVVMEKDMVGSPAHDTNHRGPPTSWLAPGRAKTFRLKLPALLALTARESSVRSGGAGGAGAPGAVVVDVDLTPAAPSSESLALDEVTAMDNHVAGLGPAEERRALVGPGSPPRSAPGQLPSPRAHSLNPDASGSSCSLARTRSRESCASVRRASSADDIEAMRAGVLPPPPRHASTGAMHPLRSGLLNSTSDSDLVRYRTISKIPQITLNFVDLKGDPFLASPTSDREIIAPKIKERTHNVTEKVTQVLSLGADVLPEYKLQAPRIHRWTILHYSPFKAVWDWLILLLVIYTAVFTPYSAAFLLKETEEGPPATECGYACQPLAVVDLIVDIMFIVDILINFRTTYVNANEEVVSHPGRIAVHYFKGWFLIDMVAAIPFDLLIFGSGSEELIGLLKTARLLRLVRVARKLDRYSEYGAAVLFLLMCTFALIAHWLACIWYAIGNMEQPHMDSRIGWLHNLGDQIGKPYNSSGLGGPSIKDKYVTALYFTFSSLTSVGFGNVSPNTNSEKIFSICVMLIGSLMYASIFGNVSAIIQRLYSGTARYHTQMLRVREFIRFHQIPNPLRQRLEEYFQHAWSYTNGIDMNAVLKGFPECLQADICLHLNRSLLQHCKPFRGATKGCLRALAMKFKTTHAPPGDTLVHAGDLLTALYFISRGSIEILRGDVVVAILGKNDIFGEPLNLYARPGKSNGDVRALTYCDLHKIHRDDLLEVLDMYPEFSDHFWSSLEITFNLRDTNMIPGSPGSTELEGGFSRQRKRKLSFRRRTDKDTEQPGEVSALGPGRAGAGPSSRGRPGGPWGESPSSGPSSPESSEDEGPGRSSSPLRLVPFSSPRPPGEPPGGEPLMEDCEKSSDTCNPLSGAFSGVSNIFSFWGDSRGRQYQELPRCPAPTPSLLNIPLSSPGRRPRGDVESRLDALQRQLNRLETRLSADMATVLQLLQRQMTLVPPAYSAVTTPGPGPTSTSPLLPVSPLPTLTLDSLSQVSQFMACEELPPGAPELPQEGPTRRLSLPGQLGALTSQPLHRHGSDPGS
Sequence of Histamine H2 receptor (P25021 whole entry): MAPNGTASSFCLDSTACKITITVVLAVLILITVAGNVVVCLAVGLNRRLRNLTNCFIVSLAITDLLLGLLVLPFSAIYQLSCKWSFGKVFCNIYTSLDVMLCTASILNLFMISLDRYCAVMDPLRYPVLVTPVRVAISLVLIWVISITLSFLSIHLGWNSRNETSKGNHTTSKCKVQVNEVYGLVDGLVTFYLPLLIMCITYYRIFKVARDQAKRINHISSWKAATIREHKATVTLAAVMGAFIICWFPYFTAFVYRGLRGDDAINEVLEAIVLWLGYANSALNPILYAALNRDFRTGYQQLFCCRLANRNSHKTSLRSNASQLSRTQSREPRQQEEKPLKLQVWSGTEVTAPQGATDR

Structure (SMILES)	AC50 (Melanocortin receptor 3) [µM]	AC50 [1] [µM]	AC50 (Histamine H1 receptor) [µM]	AC50 [2] [µM]	AC50 [3] [µM]	AC50 [4] [µM]	AC50 (Histamine H2 receptor) [µM]	AC50 (D(3) dopamine receptor) [µM]	AC50 [5] [µM]	AC50 [6] [µM]	AC50 [7] [µM]	AC50 [8] [µM]	AC50 (Adenosine receptor A1) [µM]	AC50 [9] [µM]	AC50 (Vasopressin V2 receptor) [µM]	AC50 (Histamine H3 receptor) [µM]
COc1cc2ncnc(Nc3ccc(F)c(Cl)c3)c2cc1NC(=O)/C=C/CN1CCCCC1 [DACOMITINIB ANHYDROUS]	27	> 30	> 30	> 30	21											
Cn1cnc2c(F)c(Nc3ccc(Br)cc3Cl)c(C(=O)NOCCO)cc21 [SELUMETINIB]	> 30		> 10	> 30	> 10	> 30										
Nc1c2ccccc2nc2ccccc12 [AMINACRINE]						12										
O=C1CN=C(c2ccccn2)c2cc(Br)ccc2N1 [BROMAZEPAM]	> 10	> 10	> 10	> 10	> 10	> 30	> 10	> 30	> 10	> 30	> 10	> 30	> 10	0.11	> 10	
O=C1CN=C(c2ccccc2)c2cc([N+](=O)[O-])ccc2N1 [NITRAZEPAM]	> 10	> 10		> 10	> 10	> 30	> 30	> 30	> 10	> 30	> 10	> 30	> 10	0.022	> 10	
NC(=O)CN1CCCC1=O	> 30	> 30		> 30	> 30	> 30	> 30	> 30	> 30	> 30	> 30	> 30	> 30	> 30	> 30	> 30
CC(=O)[C@]1(O)Cc2c(O)c3c(c(O)c2[C@@H](O[C@H]2C[C@H](N)[C@H](O)[C@H](C)O2)C1)C(=O)c1ccccc1C3=O [IDARUBICIN]		> 30		> 30		20.7	> 30	17	> 10	9.3	> 30	19	> 10	> 30	> 10	> 30
Cn1c(=O)cc(N2CCC[C@@H](N)C2)n(Cc2ccccc2C#N)c1=O [ALOGLIPTIN]	> 30	> 10	> 10	> 30	> 10			> 10	> 30	> 30	> 10	> 10	> 30	> 10	> 30	> 10
NC1CCN(c2nc3c(cc2F)c(=O)c(C(=O)O)cn3-c2ccc(F)cc2F)C1 (stereo not drawn) [TOSUFLOXACIN]	> 30	> 30		> 10	> 30	> 30	> 30	> 30	> 30	> 30	> 30	> 30	> 30	> 30	> 30	> 30
O=C(O)CCNC(=O)c1ccccc1 [BETAMIPRON]	> 30	> 30		> 10	> 30	> 30	> 30	> 30	> 30	> 30	> 30	> 30	> 30	> 30	> 30	> 30
CCN(CC)CCNC(=O)c1cc(S(C)(=O)=O)ccc1OC [TIAPRIDE]	> 30	> 30		> 30	> 30	8.5	> 30	0.36	> 30	> 30	> 30	> 30	> 30	> 30	> 30	> 30
CN(C(=O)c1c(O)c2ccccc2n(C)c1=O)c1ccccc1 [ROQUINIMEX]	> 30	> 30	> 30	> 30	> 30											
Nc1cc(-c2ccncc2)c[nH]c1=O [INAMRINONE]	> 30	> 10		> 30	> 10	> 30	> 10	> 30	> 30	> 30	> 10	> 30	> 30	> 10	> 30	> 10
CC(=O)[C@@]1(O)CC[C@H]2[C@@H]3C=C(Cl)C4=CC(=O)[C@@H]5C[C@@H]5[C@]4(C)[C@H]3CC[C@@]21C [CYPROTERONE]	> 10	> 10	> 10	> 10	> 10	> 30	> 10	> 30	> 10	> 30	> 10	> 30	> 10	> 10	> 10	
O=C(O)CCCCC1CCSS1 (stereo not drawn) [LIPOIC ACID, ALPHA]						> 30										

— ChEMBL document CHEMBL5291721, “A preclinical secondary pharmacology resource illuminates target-adverse drug reaction associations of marketed drugs” (Nat Commun, 2023)
